Results from patent US20070042962A1, “Peptide dependent upregulation of telomerase expression” (priority 2002, published 2007).
Ends that are not written are not given here.

How the values were obtained:
telomerase [1] = experiment: TRAP telomerase assay of tissue homogenates from old mice orally treated for 30 days; assay type: in vivo, mouse
Method: (§1) Telomerase activity was measured in total cellular lysates using a telomeric repeat amplification protocol (TRAP). DNA oligomer “TS” 18-mer (AATCCGTCGAGCAGAGTT) (SEQ ID NO:30) was end-labeled with P^32 in a 20 μl reaction containing 50 mM Tris-HCl (pH 7.5), 10 mM MgCl2, 0.1 mM EDTA, 1 mM DTT, 1 pmol TS primer, 1 pmol [γ-^32P]-ATP (4,500 Ci/mmol), and 5 U polynucleotide kinase (Ambion). The reaction was incubated for 20 minutes at 37° C., and then stopped by incubating for 5 minutes at 85° C. Labeled TS oligomer was stored at −20° C. until use.
(§2) Telomerase-induced hexamer extensions to the TS primer were performed in a 50 μl reaction volume containing 20 mM Tris-HCl (pH 8.3), 1.5 mM MgCl2, 63 mM KCl, 0.05% Tween-20, 1 mM EGTA, 50 μM dNTPs, 0.1 pmol ^32P-labeled TS primer, 1 pmol reverse primer RP (CTAACCCTAACCCTAACC) (SEQ ID NO:31), 1.0 μg cell lysate, and 2 U Taq polymerase (Ambion). The reaction was incubated for 30 minutes at 30° C. Hexamer extensions were then amplified by PCR using the following program: denaturation at 94° C. for 30 seconds, annealing at 59° C. for 30 seconds, 27 cycles denaturation/annealing. Radiolabeled ladders were separated by electrophoresis on 10% polyacrylamide gels, dried onto 3 MM paper, and visualized by autoradiography with Kodak X-Omat AR film. Exposure times averaged 4 hours at 25° C. Ladders were quantitated by excision from the gel, and counting in a Bench Count (Beckman).
The ability of peptide compounds described herein to upregulate telomerase in old and young mice was also studied. Here, the old mice (17 months old) were treated daily by gavage for 30 days with an oral dose of peptide CMX-2 in saline at doses of 0, 0.03, 0.3, and 3.3 mg of peptide compound per kilogram (kg) of body weight. Control animals received saline only without peptide compound. Animals were sacrificed by decapitation after 30 days and dissected to isolate the brain, heart, and liver, which was frozen at −70° C. for subsequent analysis. […]
Telomerase activity was then measured in the cytoplasmic protein fraction of tissue homogenates.

telomerase [2] = experiment: TRAP telomerase assay in primary cortical rat brain cell cultures; assay type: cell-based; conditions: for upregulation of expression of telomerase (TRAP): primary rat brain cortical cultures, 1-70 μg/ml
Method: as §1, §2
The ability of representative peptide compounds described herein to upregulate telomerase was also tested in primary cortical cultures of rat brain using the TRAP telomerase assay described above.
[…] […] Negative control cultures were not exposed to a peptide compound during the growth period.
In this case, the P^32-labeled DNA precursors were incorporated into the series of hexamer base pairs showing the upregulation of the telomerase. The total radioactivity corresponding to base pairs ladders from 50 to 80 bp was measured by counting the particular region of the gel. […] The highest concentrations of peptide compound tested produced increasingly less upregulation of the enzyme, as is typically observed at some point along most dose response curves.

telomerase [3] = experiment: TRAP telomerase assay in mouse neuroblastoma cells (NB2a/DL); assay type: cell-based; conditions: CMX-1 100 μg/ml or CMX-3 70 μg/ml, 6 and 24 hours
Method: Telomerase activity was assayed in human cells and tumors by telomeric repeat amplification protocol (TRAP) (see, Piatsyzek, Methods in Cell Science, 17:1 (1995)). Whole cell lysates were prepared from approximately 10^6 Nb2a cells. Cells were washed once with PBS, repelleted, and 20 μl of lysate buffer (10 mM Tris-HCl pH 7.5, 1 mM MgCl2, 1 mM EGTA, 0.1 mM benzamidine, 5 mM β-mercaptoethanol, 0.5% CHAPS, 10% glycerol) was added directly to the washed pellets. The suspensions were incubated on ice for 30 minutes to allow cell swelling and lysis. Lysates were cleared by centrifugation at 12,000×g for 20 minutes at 4° C. Total protein concentration was determined for the cleared supernatant using a Coomassie Reagent protocol (Pierce). Supernatants were stored at −70° C.
Telomerase activity was measured in total cellular lysates using a telomeric repeat amplification protocol (TRAP). […]
Telomerase-induced hexamer extensions to the TS primer were performed in a 50 μl reaction volume containing 20 mM Tris-HCl (pH 8.3), 1.5 mM MgCl2, 63 mM KCl, 0.05% Tween-20, 1 mM EGTA, 50 μM dNTPs, 0.1 pmol ^32P-labeled TS primer, 1 pmol reverse primer RP (CTAACCCTAACCCTAACC) (SEQ ID NO:31), 1.0 μg cell lysate, and 2 U Taq polymerase (Ambion). […] Ladders were quantitated by excision from the gel, and counting in a Bench Count (Beckman). […]

[4] = system: superoxide dismutase (SOD); conditions: rat brain cells; same nanogram amounts (1 ng/ml, 24 h); data not shown
Method: (§3) Primary cortical rat brain cell cultures were prepared as described above in Example 4 except that cells were cultured following a 24-hour exposure to 0 or 1 nanograms (ng)/ml of CMX-4. […] Positive control (“Pos”) represents the analysis of 1 μg of protein from a total cell lysate of immortalized HeLa cells.
(§4) In addition, the levels of antioxidative enzymes superoxide dismutase (SOD), catalase (CAT), and glutathione peroxidase (GPX) were determined using a standard immunoblotting protocol (see, Adams et al., J. Cell. Biochem., 77: 221-233 (2000)).

[5] = system: glutathione peroxidase (GPX); conditions: rat brain cells; same nanogram amounts (1 ng/ml, 24 h); data not shown
Method: as §3, §4

catalase (CAT) = experiment: Immunoblotting of catalase in primary cortical rat brain cell cultures; assay type: cell-based; conditions: same nanogram amounts (1 ng/ml, 24 h), data not shown

With “[Ac] Asp Gly Glu Ala (Ac-DGEA; listed as Homo sapiens) [CMX-2]” the “telomerase activity of brain tissue homogenates relative to untreated controls” value (telomerase [1]; 3.3 mg/kg body weight orally by gavage daily for 30 days, brain) was 3.2 fold, the “upregulation of telomerase in brain tissue” value (telomerase [1]; oral daily for 30 days, brain) was “upregulated” and the “upregulation of telomerase in heart tissue” value (telomerase [1]; oral daily for 30 days, heart) was “upregulated”.
DGDGDFAIDAPE [CMX-1] was tested, and the “upregulation of expression of telomerase (TRAP)” value (telomerase [2]) was “upregulated”, the “increase in the level of telomerase expression relative to control levels” value (telomerase [2]; primary rat cortical cultures, 10 μg/ml) was “greater than 4 fold” and the “shape of dose-response curve of telomerase upregulation” value (telomerase [2]; primary rat cortical cultures, 1, 10, 70 μg/ml) was “inverted U-shape”. The “upregulation of telomerase over control levels (TRAP)” value (telomerase [3]) was “upregulated”.
Asp Gly [CMX-3] was tested, and the “upregulation of expression of telomerase (TRAP)” value (telomerase [2]) was “upregulated”, the “upregulation of telomerase over control at dose of maximum effect” value (telomerase [2]; primary rat cortical cultures, 1 μg/ml (maximum effect)) was 2 fold and the “upregulation of telomerase over control levels (TRAP)” value (telomerase [3]) was “upregulated”.
With “R1 Asp Gly, wherein R1 is the iodine-substituted thyronine amino terminal capping group, 3,5,3′-triiodothyronine [CMX-4]” the “upregulation of telomerase (TRAP)” value (telomerase [2]; primary cortical rat brain cells, 1 ng/ml, 24-hour exposure) was “effective at upregulating telomerase”, the “upregulation of superoxide dismutase (SOD) compared to untreated control cells” value [4] was “upregulated” and the “upregulation of glutathione peroxidase (GPX) compared to untreated control cells” value [5] was “upregulated”. For the same substance, the “upregulation of catalase (CAT) compared to untreated control cells” value (catalase (CAT)) was “upregulated”.
